In patent US6410533B1, “Antibacterial compounds” (Genzyme Corporation, priority 2000, dated 2002):
In brackets after ≈: the same amount, converted by molar mass. Read-outs that look alike come from different tables or passages of the source.

Key:
[1] = tested on: Staphylococcus aureus bacteria (ATCC 9604 SV); assay: Minimal inhibitory concentration (MIC), broth microdilution; format: cell-based; conditions: 24 h at 37° C.
Procedure: Minimal inhibitory concentrations (MICs) for Staphylococcus aureus bacteria (ATCC 9604 SV) were determined by broth microdilution methodology following National Committee for Clinical Laboratory Standards. In the MIC determinations, the compounds were incorporated into Mueller-Hinton broth (Becton Dickinson Microbiology systems, Cockeyville, Md.) at a series of concentrations. After the test organism was grown overnight in TB broth, the broths were adjusted to the turbidity equivalent to 0.05 McFarland standard. The suspensions were diluted twenty-fold into the broth containing the compounds. […] In the IC50 determination, the method was modified to allow the rapid growth of the organisms. The inoculum suspensions were adjusted to 0.1 McFarland standard and then diluted two-fold into the wells containing TB broth and the compounds. After three to five hours incubation at 37° C., the turbidity was measured at 550 nm and inhibitory activity was defined as the concentration of antimicrobial agent that inhibits 50% growth of the organism in the microdilution wells.

[2] = tested on: methicillin-resistant Staphylococcus aureus (ATCC 33591); assay: In vivo mouse intraperitoneal infection, mortality and % survivors over 7 days; conditions: 1 and 5 h post inoculation, MRSA ATCC 33591 i.p., ICR mice
Procedure: Ten male ICR mice weighing 20 grams were inoculated intraperitoneally with an LD90-100 dose (2-3×10^7 CFU/mouse) of methicillin-resistant Staphylococcus aureus (ATCC 33591) in brain-heart infusion broth containing 5% mucin. Compounds were suspended in a vehicle containing 1% cremophore EL (Sigma) in normal saline and were administered subcutaneously in a volume of 0.4 ml per mouse either 1 hour following bacterial inoculation or 1 and 5 hours post inoculation. Animals receiving two doses of drug were injected subcutaneously in the hindquarter one hour post-innoculation and in the neck area, 5 hours post-innoculation. Deaths occurring during the subsequent 7 days are recorded. Mortality and % survivor endpoints are calculated.

[3] = Staphylococcus aureus ATCC 9604 SV
[4] = ATCC9604, Staphylococcus aureus ATCC 9604 SV, read-out: MIC

Row | SMILES | MIC [1, 3] | In Vivo, double dose (% of mice rescued) ([2]; 2 × 2 mg/kg s.c.) | In Vivo, double dose (% of mice rescued) ([2]; 2 × 20 mg/kg s.c.) | MIC [1, 4]
1 | CCCC1=NN(c2cc(Cl)cc(Cl)c2)C(=O)C1 [Compound 10] | 0.813 µg/mL (≈ 3 µM) | 0% @ 2 × 2 mg/kg | 0% @ 2 × 20 mg/kg | –
2 | O=C1CC(c2cccc(F)c2)=NN1c1cc(Cl)cc(Cl)c1 [Compound 15] | 0.485 µg/mL (≈ 1.5 µM) | 0% @ 2 × 2 mg/kg | 0% @ 2 × 20 mg/kg | –
3 | O=C1CC(c2ccc(F)cc2)=NN1c1cc(Cl)cc(Cl)c1 [Compound 16] | 0.485 µg/mL (≈ 1.5 µM) | 0% @ 2 × 2 mg/kg | 25% @ 2 × 20 mg/kg | –
4 | CCC1=NN(c2cc(Cl)cc(Cl)c2)C(=O)C1 [Compound 17] | 1.54 µg/mL (≈ 5.99 µM) | 12.5% @ 2 × 2 mg/kg | 25% @ 2 × 20 mg/kg | –
5 | O=C1C(=Cc2ccncc2)C(c2ccccc2)=NN1c1cc(Cl)cc(Cl)c1 [Compound 19] | 1.15 µg/mL (≈ 2.92 µM) | 0% @ 2 × 2 mg/kg | 25% @ 2 × 20 mg/kg | –
6 | CC(C)=C1C(=O)N(c2cc(Cl)cc(Cl)c2)N=C1c1ccccc1 [Compound 22] | 0.518 µg/mL (≈ 1.5 µM) | 0% @ 2 × 2 mg/kg | 25% @ 2 × 20 mg/kg | –
7 | O=C1C(=NO)C(c2ccccc2)=NN1c1cc(Cl)cc(Cl)c1 [Compound 23, 2-(3,5-Dichloro-phenyl)-5-phenyl-2H-pyrazole-3,4-dione-4-oxime] | – | 0% @ 2 × 2 mg/kg | 25% @ 2 × 20 mg/kg | 8.35 µg/mL (≈ 25 µM)
8 | O=C(O)c1ccccc1C=C1C(=O)N(c2cc(Cl)cc(Cl)c2)N=C1c1ccccc1 [Compound 24] | 1.35 µg/mL (≈ 3.09 µM) | 0% @ 2 × 2 mg/kg | 0% @ 2 × 20 mg/kg | –
9 | CC(=O)C=C1C(=O)N(c2cc(Cl)cc(Cl)c2)N=C1c1ccccc1 [Compound 25] | 3.12 µg/mL (≈ 8.69 µM) | 0% @ 2 × 2 mg/kg | 0% @ 2 × 20 mg/kg | –
10 | O=C1C(=Cc2cccnc2)C(c2ccccc2)=NN1c1cc(Cl)cc(Cl)c1 [Compound 30] | 1.20 µg/mL (≈ 3.04 µM) | 0% @ 2 × 2 mg/kg | 0% @ 2 × 20 mg/kg | –
11 | CN1CCC(=C2C(=O)N(c3cc(Cl)cc(Cl)c3)N=C2c2ccccc2)CC1 [Compound 31, 2-(3,5-Dichloro-phenyl)-4-(1-methyl-piperidin-4-ylidene)-5-phenyl-2,4-dihydropyrazol-3-one] | – | 0% @ 2 × 2 mg/kg | 0% @ 2 × 20 mg/kg | 5 µg/mL (≈ 12.5 µM)
12 | O=C1C(=Cc2ccsc2)C(c2ccccc2)=NN1c1cc(Cl)cc(Cl)c1 [Compound 33] | 5.00 µg/mL (≈ 12.5 µM) | 25% @ 2 × 2 mg/kg | 0% @ 2 × 20 mg/kg | –
13 | O=C1C(=Cc2ccoc2)C(c2ccccc2)=NN1c1cc(Cl)cc(Cl)c1 [Compound 34] | 2.40 µg/mL (≈ 6.26 µM) | 25% @ 2 × 2 mg/kg | 25% @ 2 × 20 mg/kg | –
14 | O=C1Nc2ccccc2C1=C1C(=O)N(c2cc(Cl)cc(Cl)c2)N=C1c1ccccc1 [Compound 42] | 1.20 µg/mL (≈ 2.76 µM) | 0% @ 2 × 2 mg/kg | 0% @ 2 × 20 mg/kg | –
15 | O=C(O)C=C1C(=O)N(c2cc(Cl)cc(Cl)c2)N=C1c1ccccc1 [Compound 46] | 1.50 µg/mL (≈ 4.15 µM) | 0% @ 2 × 2 mg/kg | 0% @ 2 × 20 mg/kg | –
16 | COc1ccc(C(=O)C2C(=O)N(c3cc(Cl)cc(Cl)c3)N=C2c2ccccc2)cc1 (stereo not drawn) [Compound 49] | 10.0 µg/mL (≈ 22.8 µM) | 0% @ 2 × 2 mg/kg | 25% @ 2 × 20 mg/kg | –
17 | O=C(c1ccccn1)C1C(=O)N(c2cc(Cl)cc(Cl)c2)N=C1c1ccccc1 (stereo not drawn) [Compound 50, 2-(3,5-Dichloro-phenyl)-5-phenyl-4-(pyridine-2-carbonyl)-2,4-dihydro-pyrazol-3-one] | – | 0% @ 2 × 2 mg/kg | 0% @ 2 × 20 mg/kg | 10.3 µg/mL (≈ 25.1 µM)
18 | O=C(O)c1cccc(C=C2C(=O)N(c3cc(Cl)cc(Cl)c3)N=C2c2ccccc2)c1 [Compound 51] | 1.31 µg/mL (≈ 3 µM) | 25% @ 2 × 2 mg/kg | 25% @ 2 × 20 mg/kg | –
19 | O=C(O)c1ccc(C=C2C(=O)N(c3cc(Cl)cc(Cl)c3)N=C2c2ccccc2)cc1 [Compound 52] | 0.656 µg/mL (≈ 1.5 µM) | 0% @ 2 × 2 mg/kg | 0% @ 2 × 20 mg/kg | –

Row | SMILES | MIC [1, 3] | In Vivo, double dose (% of mice rescued) ([2]; 2 × 2 mg/kg s.c.) | In Vivo, double dose (% of mice rescued) ([2]; 2 × 20 mg/kg s.c.) | MIC [1, 4]
20 | CCC1=NN(c2cc(Cl)cc(Cl)c2)C(=O)C1=Cc1cccnc1 [Compound 54] | 0.750 µg/mL (≈ 2.17 µM) | 0% @ 2 × 2 mg/kg | 12.5% @ 2 × 20 mg/kg | –
21 | CCC1=NN(c2cc(Cl)cc(Cl)c2)C(=O)C1=Cc1ccco1 [Compound 55] | 1.50 µg/mL (≈ 4.48 µM) | 0% @ 2 × 2 mg/kg | 25% @ 2 × 20 mg/kg | –
22 | CCC1=NN(c2cc(Cl)cc(Cl)c2)C(=O)C1=C1C(=O)Nc2ccccc21 [Compound 56] | 1.50 µg/mL (≈ 3.88 µM) | 0% @ 2 × 2 mg/kg | 0% @ 2 × 20 mg/kg | –
23 | CCC1=NN(c2cc(Cl)cc(Cl)c2)C(=O)C1=CC(=O)O [Compound 57] | 6.25 µg/mL (≈ 20 µM) | 0% @ 2 × 2 mg/kg | 0% @ 2 × 20 mg/kg | –
24 | CCC1=NN(c2cc(Cl)cc(Cl)c2)C(=O)C1=CCCC(=O)O [Compound 61] | 8.53 µg/mL (≈ 25 µM) | – | – | –
25 | CCOC(=O)C1=NN(c2cc(Cl)cc(Cl)c2)C(=O)C1=CC1C(=O)Nc2ccccc21 (stereo not drawn) [Compound 62] | 12.5 µg/mL (≈ 28.1 µM) | – | – | –
26 | CCOC(=O)C1=NN(c2cc(Cl)cc(Cl)c2)C(=O)C1=Cc1ccc(C(=O)O)cc1 [Compound 63] | 12.5 µg/mL (≈ 28.9 µM) | – | – | –
27 | CCOC(=O)C1=NN(c2cc(Cl)cc(Cl)c2)C(=O)C1=CC(=O)O [Compound 64] | 6.25 µg/mL (≈ 17.5 µM) | – | – | –
28 | CCOC(=O)C1=NN(c2cc(Cl)cc(Cl)c2)C(=O)C1 [Compound 67] | 3.76 µg/mL (≈ 12.5 µM) | – | – | –
29 | CCC1=NN(c2cc(Cl)cc(Cl)c2)C(=O)C1=Cc1cccc(C(=O)N2CCN(C)CC2)c1 [Compound 68] | 11.8 µg/mL (≈ 25 µM) | – | – | –
30 | CCC1=NN(c2cc(Cl)cc(Cl)c2)C(=O)C1=Cc1cccc(C(=O)N2CCOCC2)c1 [Compound 69] | 11.5 µg/mL (≈ 25.1 µM) | – | – | –
31 | CCC1=NN(c2cc(Cl)cc(Cl)c2)C(=O)C1=Cc1cccc(C(=O)NCCO)c1 [Compound 70] | 5.40 µg/mL (≈ 12.5 µM) | – | – | –
32 | O=C(NCc1cccc(Cl)c1)Nc1nc(-c2cccc(F)c2)cs1 [Compound 174] | 9.05 µg/mL (≈ 25 µM) | – | – | –
33 | O=C(NCc1cccc(Cl)c1)Nc1nc(-c2ccc(C(F)(F)F)cc2)cs1 [Compound 176] | 5.15 µg/mL (≈ 12.5 µM) | – | – | –
34 | O=C(NCc1cccc(Cl)c1)Nc1nc(-c2ccc(Cl)cc2Cl)cs1 [Compound 177] | 5.16 µg/mL (≈ 12.5 µM) | – | – | –
35 | O=C(NCc1cccc(Cl)c1)Nc1nc(-c2ccc(F)cc2F)cs1 [Compound 178] | 9.50 µg/mL (≈ 25 µM) | – | – | –
36 | O=C(NCc1cccc(Cl)c1)Nc1nc(-c2ccc(Cl)c(Cl)c2)cs1 [Compound 179] | 5.16 µg/mL (≈ 12.5 µM) | – | – | –
37 | Cc1cc(-c2csc(NC(=O)NCc3cccc(Cl)c3)n2)ccc1F [Compound 180] | 9.40 µg/mL (≈ 25 µM) | – | – | –
38 | O=C(NCc1ccc(Cl)c(Cl)c1)Nc1nc(-c2ccc(Br)cc2)cs1 [Compound 181] | 11.4 µg/mL (≈ 24.9 µM) | – | – | –
